{"source": "patent US5032582A", "about": "“Method for treating fungal infections with amphotericin B/cholesterol sulfate composition” (Liposome Technology, Inc., priority 1989, dated 1991)", "origin": "cited, not measured here", "settings": "in vivo", "data": [{"molecule": "CC(C)CCC[C@@H](C)[C@H]1CC[C@H]2[C@@H]3CC=C4C[C@@H](OS(=O)(=O)[O-])CC[C@]4(C)[C@H]3CC[C@]12C.[Na+]", "note": "[cholesterol sulfate, cholesterol 3-sulphate, sodium salt]", "values": [{"measurement": "toxicity", "result": "no known toxicity"}]}]}
